Test results taken from paper PMC8667043, “First-in-Class Inhibitors of the Ribosomal Oxygenase MINA53” (Journal of Medicinal Chemistry, 2021).

Legend:
HL-60 = test: WST-1 cell proliferation assay; assay type: cell-based; settings: Homo sapiens, APL, WST-1, 48 h, read-out: IC50 antiproliferative effect, HL-60
Description: (§1) The effect of compounds on cell proliferation of different leukemia and lymphoma cell lines OCI-AML3 (DSMZ ACC-582), IMS-M2 (a gift from Professor B. Falini, University of Perugia), OCI-AML2 (DSMZ, ACC-99), MV4–11 (ATCC, CRL-9591), Kasumi-1 (ATCC, CRL-2724), Karpass299 (DSMZ, ACC-31), U937 (ATCC, CRL1593.2), HL-60 (ATCC, CCL-240), and NB4 (DSMZ, ACC-207) was evaluated using the WST-1 assay (Roche Diagnostic GmbH Germany). The cells were plated, in triplicate, in 384-viewplate (Perkin Elmer) at a density of 5 × 10^3 cells/well in a final volume of 22.5 μL. The cells were incubated with increasing concentrations of compounds for 48 h at 37 °C, 5% CO2, then 2.5 μL of WST-1 reagent was added to each well for 1 h. For each cell line, dose–response curves were analyzed as nonlinear regression curves using GraphPad Prism (GraphPad Software Inc.) to obtain IC50 values.

IMS-M2 = test: WST-1 cell proliferation assay; assay type: cell-based; settings: AML, WST-1, 48 h, read-out: IC50 antiproliferative effect, IMS-M2
Description: as §1

Karpass299 = test: WST-1 cell proliferation assay; assay type: cell-based; settings: ALCL; WST-1, 48 h; read-out: IC50 antiproliferative effect, Karpass299
Description: as §1

Kasumi-1 = test: WST-1 cell proliferation assay; assay type: cell-based; settings: Homo sapiens, AML, WST-1, 48 h, read-out: IC50 antiproliferative effect, Kasumi-1
Description: as §1

MV4-11 = test: WST-1 cell proliferation assay; assay type: cell-based; settings: Homo sapiens, AML, WST-1, 48 h, read-out: IC50 antiproliferative effect, MV4-11
Description: as §1

NB4 = test: WST-1 cell proliferation assay; assay type: cell-based; settings: Homo sapiens, NB-4; APL; WST-1, 48 h; read-out: IC50 antiproliferative effect, NB4
Description: as §1

OCI-AML2 = test: WST-1 cell proliferation assay; assay type: cell-based; settings: Homo sapiens, AML, WST-1, 48 h, read-out: IC50 antiproliferative effect, OCI-AML2
Description: as §1

OCI-AML3 = test: WST-1 cell proliferation assay; assay type: cell-based; settings: Homo sapiens, OCI-AML-3, WST-1, 48 h, read-out: IC50 antiproliferative effect, OCI-AML3
Description: as §1

U937 = test: WST-1 cell proliferation assay; assay type: cell-based; settings: Homo sapiens, U-937; AML; WST-1, 48 h; read-out: IC50 antiproliferative effect, U937
Description: as §1

HT-29 colon carcinoma = test: MTT cell viability assay; assay type: cell-based, human; settings: 72, 96, 120 h, 10 to 100 μM, 10′ to a similar extent as 10
Description: (§2) Human commercially available established cancer cell lines HT-29 colon carcinoma (ATCC, HTB-38), U-87MG glioblastoma (ATCC, HTB-14), and MNK-45 gastric cancer (a gift from Dr. M. Broggini, Mario Negri Institute) were cultured in RPMI medium (Euroclone, Milan, IT) supplemented with 10% inactivated fetal bovine serum (HyClone, Thermo Scientific, South Logan, UT), 1% L-glutamine (Euroclone), and 100 μg/mL penicillin/streptomycin (Euroclone). HEK293T and HeLa cells were cultured in Dulbecco’s Modified Eagle Medium (DMEM, Gibco) supplemented with 10% (v/v) fetal bovine serum (FBS, Sigma) and 100 international units/mL (IU/mL) penicillin and 100 μg/mL streptomycin (Gibco). The cells were routinely tested for mycoplasma contamination and STR-authenticated.
(§3) Twenty-four hours following seeding, exponentially growing cells were treated with the different compounds at concentrations ranging from 10 to 100 μM for 72–120 h. Aqueous DMSO (0.5%, v/v) was used as a control (untreated). Cell viability was determined by the 3-(4,5-dimethylthiazol-2-yl)-2,5-diphenyltetrazolium bromide (MTT) colorimetric assay (Sigma-Aldrich). In summary, exponentially growing cancer cells were seeded in sextuplicate in 96-well culture plates (1.5 × 10^3 cells/well). After 24 h, the compounds were added at concentrations ranging from 10 to 100 μM. The effect of compounds on cancer cell proliferation was assessed by measuring the MTT dye absorbance of the cells as reported.[52] For combination treatments, the cells were treated with each of three compounds, either alone or in combination with doxorubicin. In particular, U-87MG cells were treated with doxorubicin alone or in combination with different MINA53 inhibitors for 24 h. The effect of different compounds or combinations (drug concentration ratio 1:20, doxorubicin: compound) on U-87MG cancer cell viability was assessed by measuring the MTT dye absorbance of cells. The interaction between doxorubicin (Doxo) and different compounds was evaluated based on the combination index (CI) using the CI equation through CalcuSyn software (Biosoft, Cambridge, U.K.). Synergism CI < 0.9, additivity 0.9 < CI < 1.1, antagonism CI > 1.1.

MNK-45 gastric carcinoma = test: MTT cell viability assay; assay type: cell-based, human; settings: 72, 96, 120 h, 10 to 100 μM, 10′ to a similar extent as 10
Description: as §2, §3

U-87MG malignant glioma = test: MTT cell viability assay; assay type: cell-based, human; settings: 72, 96, 120 h, 10 to 100 μM, 10′ to a similar extent as 10
Description: as §2, §3

| Compound | IC50 (HL-60) | IC50 (IMS-M2) | IC50 (Karpass299) | IC50 (Kasumi-1) | IC50 (MV4-11) | IC50 (NB4) | IC50 (OCI-AML2) | IC50 (OCI-AML3) | IC50 (U937) | effect on cell viability, HT-29 (HT-29 colon carcinoma) | effect on cell viability, MNK-45 (MNK-45 gastric carcinoma) | effect on cell viability, U-87MG (U-87MG malignant glioma) |
| --- | --- | --- | --- | --- | --- | --- | --- | --- | --- | --- | --- | --- |
| O=C(O)c1c[nH]c(=S)[nH]c1=O [compound 1] | > 100 µM | > 100 µM | > 100 µM | > 100 µM | > 100 µM | > 100 µM | > 100 µM | > 100 µM | > 100 µM | no effect | no effect | no effect |
| O=C(O)c1cnc(SCCc2ccccc2)[nH]c1=O [compound 9, 2-(Phenethylthio)-3,4-dihydro-4-oxopyrimidine-5-carboxylic Acid] | 73 ± 3 µM | > 100 µM | > 100 µM | > 100 µM | > 100 µM | 91 ± 3 µM | > 100 µM | > 100 µM | > 100 µM | only a marginal effect | sensitive | sensitive |
| O=C(O)c1cnc(SCCCc2ccccc2)[nH]c1=O [compound 10, 2-((3-Phenylpropyl)thio)-3,4-dihydro-4-oxopyrimidine-5-carboxylic Acid] | 14 ± 2 µM | > 100 µM | > 100 µM | > 100 µM | > 100 µM | 94 ± 4 µM | > 100 µM | > 100 µM | > 100 µM | only a marginal effect | sensitive | sensitive |
